Patent US20250032510A1, “AMORPHOUS SOLID DISPERSION GANAXOLONE FORMULATION” (MARINUS PHARMACEUTICALS, INC., priority 2021, published 2025)

Experiment: DSC miscibility screening of polymer-surfactant-ganaxolone combinations
Type: physicochemical
Settings: added to all formulations

Effect of addition on crystallinity of the ganaxolone: increased crystallinity
Structure (SMILES): CCCC(CCC)C(=O)O [Valproic acid]
